Assay results from patent publication US20150352114A1, “MITOTIC KINESIN Eg5 INHIBITING ANTICANCER AGENTS” (THE CLEVELAND CLINIC FOUNDATION, priority 2014, published 2015).

Tests used:
[1] = test system: GSCs from xenograft 3691; test: Intracranial implantation of pre-exposed GSCs (tumor initiation); format: in vivo, mice
Procedure: All animal studies described were approved by the Cleveland Clinic Foundation Institutional Animal Care and Use Committee and conducted in accordance with the NIH Guide for the Care and Use of Laboratory Animals. For subcutaneous tumor studies, 1×10^5 freshly dissociated GBM cells from a xenograft originally derived from a primary GBM patient specimen (3691) were injected into the flanks of 10 six week old female athymic nu/nu mice. Tumors were allowed to reach approximately 0.12 cm^3, at which point animals were randomized into either vehicle control (DMSO) group or ispinesib (10 mg/kg given daily for 7 consecutive days by intraperitoneal injection) (Selleck Chemicals, Houston, Tex.). Tumors were monitored and measured daily using perpendicular diameter measurements for 7 days. Tumor volume was calculated using the ellipsoid formula π/6×larger diameter×(smaller diameter)^2. After the last treatment on Day 7, tumors were removed and weighed then processed for immunofluorescence (as described below). For intracranial implantation studies to evaluate tumor initiation by GSCs, the cells were isolated as described below and pre-exposed to drug or vehicle either in vitro or in vivo. […] Mice were monitored daily for neurological impairment at which time they were sacrificed and brains removed to evaluate for tumor development.

[2] = test system: NSTCs; test: Dose response cell viability, CellTiter-Glo ATP-based assay, NSTCs; settings: Homo sapiens, 0 to 32 nM, 72 hours
Source text: Human tissues were acquired from primary human brain tumor patient specimens in accordance with appropriate approved Institutional Review Board protocols. Tumor grade and available cytogenetic information for each specimen has been previously described. Tumor specimens were maintained through subcutaneous xenografts in the flanks of athymic Nu/Nu or NSG mice. Tumors were dissociated using a papain dissociation system (Worthington Biochemical, Lakewood, N.J.). […]
The half maximal effective concentration of ispinesib for acutely dissociated and MACS sorted matched GSCs and NSTCs was determined by plating, in triplicate, 1,000 cells per well of a 96 well plate pre-coated with GelTrex in growth-factor free Neuralbasal media. […] Viability was measured at 72 hours using CellTiter-Glo ATP-based assay (Promega, Madison, Wis.) read on a luminometer (Perkin-Elmer, Waltham, Mass.). […] The next day, cells were exposed to 3 nM ispinesib or vehicle (DMSO) and viability was measured daily for 5 days using CellTiter-Glo. Day 0 reading were taken immediately after addition of drug or vehicle. SubG1 for GSCs and NSTCs was determined by flow cytometry for propidium iodide and gated as the events below the 2N G1 peak of the resulting histogram. […] Cells were fixed at Day 0 through Day 4 in 100% cold ethanol and simultaneously processed for flow analysis with 20,000 events analyzed per condition.

[3] = test system: human brain microvascular endothelial cells; test: Endothelial tube formation on Matrigel; format: cell-based; settings: 200 nM; 6-hour time course
Procedure: Primary Human Brain Microvascular Endothelial Cells were purchased from Cell Systems (Kirkland, Wash.) and used at passages 3 through 6. Cells were maintained in EGM-2 MV media from Lonza (Walkersville, Md.) and stained with CellTracker™ Green CMFDA Dye from Invitrogen (Eugene, Oreg.) for fluorescent imaging. Tube formation assays were performed on Matrigel from Corning (Tewksbury, Mass.) in glass bottom 6-well plates from MatTek (Ashland, Mass.). Cells were plated at a density of 1.3×10^4 per cm^2 and imaged at the indicated times.

[4] = test system: 08-387 GSCs; test: Wound assay, tubulin immunofluorescence; format: cell-based, human; settings: 200 nM; 6 hours
Procedure: Interphase enriched 08-387 GSCs were seeded within two-well culture inserts (ibidi, Verona, Wis.) at 2×10^5 cells per ml in triplicate (final volume of 80 μl per well) onto Geltrex coated glass bottom 6 well pates (MatTek Corp., Ashland, Mass.). After 2 hours, the insert was removed and cells were exposed to vehicle or 200 nM ispinesib. 6 hours later, cells were fixed and processed for immunofluorescence as described for atubulin. 20 Z-stack images at the wound edge were captured per condition using the 40× objective on a Leica DMI6000 inverted microscope. Images were then exported aa tif files using Velocity software (Mountain View, Calif.) and analyzed in ImageJ (NIH, Bethesda, Md.). Regions of interest were drawn for the primary cell layer at the wound edge for 3 independent scans per Z-stack representing the top, middle and bottom portion of the cell layer and pixel intensity and area measured.

## Cc1ccc(C(=O)N(CCCN)[C@@H](c2nc3cc(Cl)ccc3c(=O)n2Cc2ccccc2)C(C)C)cc1 [ispinesib, N-(3-amino-propyl)-n-[R-1-(3-benzyl-7-choloro-4-oxo-3,4-dihydroquinazolin-2-yl)-2-methyl-propyl]-4-methyl-benzamide methanesulfonate]
[1]; GSCs from subcutaneous tumors treated in vivo 3 days with 10 mg/kg, 1,000 or 10,000 cells per mouse
  tumor initiation: reduced their tumor initiation phenotype
[1]; GSCs pretreated in vitro 18 hours with 3 nM, 2,500 or 25,000 cells per mouse
  secondary tumor initiation: significant impairment of secondary tumor initiation
[2]
  EC50: 1.79 ± 0.22 nM
[3]
  endothelial tube formation: failed to properly organize into tubes
[4]
  polymerized tubulin at wound edge: significant decrease in polymerized tubulin
